{
  "source": "ChEMBL document CHEMBL5108004",
  "about": "“An auristatin-based peptide-drug conjugate targeting Kita-Kyushu lung cancer antigen 1 for precision chemoradiotherapy in gastric cancer” (Eur J Med Chem, 2022)",
  "key": {"MKN-45 [1]": {"tested_on": "MKN-45", "assay": "Induction of DNA damage in KK-LC-1-positive human MKN-45 cells assessed as double strand breaks by measuring increase in gamma-H2AX foci formation at 100 nM incubated for 24 hrs followed by exposure to 2 Gy gamma irradiation by immunofluorescence staining method", "format": "functional, cell-based"}, "[2]": {"assay": "Toxicity in male BALB/c nude mouse xenografted with KK-LC-1-positive human MKN-45 cells assessed as increase in survival of mouse at 0.3 mg/kg, iv administered twice a week for 3 weeks", "format": "organism-based", "conditions": "in vivo, 504 h"}, "MKN-45 [3]": {"tested_on": "MKN-45", "assay": "Antitumor activity against KK-LC-1-positive human MKN-45 cells xenografted in male BALB/c nude mouse assessed as reduction in tumor growth at 0.3 mg/kg, iv administered twice a week for 3 weeks", "format": "functional, organism-based"}, "MKN-45 [4]": {"tested_on": "MKN-45", "assay": "Cell cycle arrest in KK-LC-1-positive human MKN-45 cells assessed as increase accumulation at G2/M phase at 100 nM measured after 0 to 48 hrs by propidium iodide staining based flow cytometric analysis", "format": "functional", "conditions": "time 0-48 hrs, TDE = time-dependent effect"}, "[5]": {"assay": "Toxicity in male BALB/c nude mouse xenografted with KK-LC-1-positive human MKN-45 cells administered intravenously twice a week for 3 weeks", "conditions": "in vivo, route iv"}, "MKN-45 [6]": {"tested_on": "MKN-45", "assay": "Antitumor activity against KK-LC-1-positive human MKN-45 cells xenografted in male BALB/c nude mouse assessed as reduction in tumor volume at 0.3 mg/kg, iv administered twice a week for 3 weeks", "format": "functional", "parameters": "scale not given: the % may be the effect or the level left"}, "NUGC-4 [7]": {"tested_on": "NUGC-4", "assay": "Cell cycle arrest in KK-LC-1-positive human NUGC-4 cells assessed as accumulation at G2/M phase at 20 nM measured after 24 hrs by propidium iodide staining based flow cytometric analysis (reference value: 21.5 +/- 0.7 %)", "format": "functional"}, "MKN-45 [8]": {"tested_on": "MKN-45", "assay": "Antitumor activity against KK-LC-1-positive human MKN-45 cells xenografted in male BALB/c nude mouse assessed as tumor volume at 0.3 mg/kg, iv administered twice a week for 3 weeks", "format": "functional"}, "[9]": {"assay": "Stability in human plasma assessed as compound remaining at 500 uM measured after 8 hrs by HPLC analysis", "format": "ADME, cell-free", "conditions": "read-out: Stability"}, "NUGC-4 [10]": {"tested_on": "NUGC-4", "assay": "Cell cycle arrest in KK-LC-1-positive human NUGC-4 cells assessed as increase accumulation at G2/M phase at 100 nM measured after 0 to 48 hrs by propidium iodide staining based flow cytometric analysis", "format": "functional", "conditions": "time 0-48 hrs, TDE = time-dependent effect"}, "[11]": {"assay": "Stability in PBS at 37 degreeC measured after 48 hrs by HPLC analysis", "format": "physicochemical", "conditions": "buffer"}, "[12]": {"assay": "Toxicity in male BALB/c nude mouse xenografted with KK-LC-1-positive human MKN-45 cells assessed as effect on kidney function at 0.3 mg/kg, iv administered twice a week for 3 weeks", "format": "organism-based", "conditions": "in vivo, 504 h"}, "[13]": {"assay": "Toxicity in male BALB/c nude mouse xenografted with KK-LC-1-positive human MKN-45 cells assessed as effect on liver function at 2 mg/kg, iv administered twice a week for 3 weeks", "format": "organism-based", "conditions": "in vivo, 504 h"}, "MKN-45 [14]": {"tested_on": "MKN-45", "assay": "Induction of apoptosis in KK-LC-1-positive human MKN-45 cells at 100 nM incubated for 24 hrs followed by exposure to 2 Gy gamma irradiation by AnnexinV/PI-staining based flow cytometry", "format": "functional, cell-based"}, "MKN-45 [15]": {"tested_on": "MKN-45", "assay": "Antitumor activity against KK-LC-1-positive human MKN-45 cells xenografted in male BALB/c nude mouse assessed as induction of tumor regression at 2 mg/kg, iv administered twice a week for 3 weeks", "format": "functional, organism-based"}, "[16]": {"assay": "Toxicity in male BALB/c nude mouse xenografted with KK-LC-1-positive human MKN-45 cells assessed as body weight loss at 0.3 mg/kg, iv administered twice a week for 3 weeks", "format": "organism-based", "conditions": "in vivo, 504 h"}, "[17]": {"assay": "Ratio IC50 for cytotoxicity against KK-LC-1-negative human HGC-27 cells to IC50 for cytotoxicity against KK-LC-1-positive human MKN-45 cells"}, "NUGC-4 [18]": {"tested_on": "NUGC-4", "assay": "Induction of mitotic arrest in KK-LC-1-positive human NUGC-4 cells xenografted in nude mouse assessed as number of pHH3-positive nuclei in tumor at 4 nmol, iv administered as single dose and measured after 24 hrs by pHH3 immunohistochemical staining method relative to control", "format": "functional"}, "[19]": {"assay": "Drug uptake in KK-LC-1-positive human NUGC-4 cells using FITC-labeled compound at 100 uM incubated for 10 to 70 mins and assessed as drug internalization measured by DAPI staining method", "format": "ADME, cell-based", "conditions": "nugc-4, 100 µM, time 10-70 min"}, "MKN-45 [20]": {"tested_on": "MKN-45", "assay": "Cytotoxicity against KK-LC-1-positive human MKN-45 cells incubated for 72 hrs by CCK-8 assay", "format": "functional, cell-based", "conditions": "MKN-45, 72 h"}, "[21]": {"biological_target": "T1, Kita-kyushu lung cancer antigen 1 (Homo sapiens) (UniProt Q5H943)", "T1 sequence (whole entry)": "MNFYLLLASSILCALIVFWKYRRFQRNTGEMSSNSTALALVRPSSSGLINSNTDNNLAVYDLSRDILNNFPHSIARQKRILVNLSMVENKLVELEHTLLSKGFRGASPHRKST", "assay": "Binding affinity to KK-LC-1 in KK-LC-1-positive human MKN-45 cells using FITC-labeled compound at 1 to 1000 uM incubated for 30 mins and measured by flow cytometry assay", "format": "cell-based", "conditions": "dose 1-1000 µM"}, "[22]": {"assay": "Toxicity in male BALB/c nude mouse xenografted with KK-LC-1-positive human MKN-45 cells assessed as mouse death at 3 mg/kg, iv administered twice a week for 3 weeks", "format": "organism-based", "conditions": "in vivo, 504 h"}, "MKN-45 [23]": {"tested_on": "MKN-45", "assay": "Antitumor activity against KK-LC-1-positive human MKN-45 cells xenografted in male BALB/c nude mouse assessed as induction of tumor regression at 0.3 mg/kg, iv administered twice a week for 3 weeks", "format": "functional, organism-based"}, "NUGC-4 [24]": {"tested_on": "NUGC-4", "assay": "Cytotoxicity against KK-LC-1-positive human NUGC-4 cells incubated for 72 hrs by CCK-8 assay", "format": "functional, cell-based", "conditions": "NUGC-4, 72 h"}, "[25]": {"assay": "Ratio IC50 for cytotoxicity against KK-LC-1-negative human HGC-27 cells to IC50 for cytotoxicity against KK-LC-1-positive human NUGC-4 cells"}},
  "note": "pIC50: −log10 of the molar value. Active and inactive are the calls of the source. The calls are words filed in the database; no cut-off is given here. *1 amine or outer side, *2 acyl side, *3 side chain or, on linkers, in order; H or OH if unused. Where a SMILES comes first, the peptide text is derived from it. Bridges are numbered along the chain shown (N, C = ends). Roman numbers before positions name the chains, in order. [ ]: non-standard residue; d: D form. The star is where a group is joined. Hexanoyl(6-succinimido-3yl) = O=C1CC([*:1])C(=O)N1CCCCCC(=O)[*:2]; Dolaproine = CO[C@@H]([C@@H]1CCCN1)[C@@H](C)C(=O)O; Dil = CC[C@H](C)[C@H](NC)[C@@H](CC(=O)O)OC; PABC = O=C(OCc1ccc(N[*:1])cc1)[*:2]; X1 = C[C@@H](N*)[C@@H](O)c1ccccc1; Cit = NC(=O)NCCC[C@H](N)C(=O)O; NMeV = CN[C@H](C(=O)O)C(C)C",
  "data": [
    {"smiles": "CC[C@H](C)[C@@H]([C@@H](CC(=O)N1CCC[C@H]1[C@H](OC)[C@@H](C)C(=O)N[C@H](C)[C@@H](O)c1ccccc1)OC)N(C)C(=O)[C@@H](NC(=O)[C@@H](NC(=O)[C@H](C(C)C)N(C)C(=O)OCc1ccc(NC(=O)[C@H](CCCNC(N)=O)NC(=O)[C@@H](NC(=O)CCCCCN2C(=O)CC(SC[C@H](N)C(=O)N[C@H]3CSSC[C@@H](C(=O)O)NC(=O)[C@H]([C@@H](C)O)NC(=O)[C@H]([C@@H](C)O)NC(=O)[C@H](CC(C)C)NC(=O)[C@H](C)NC(=O)[C@H]([C@@H](C)O)NC(=O)[C@H](CC(N)=O)NC(=O)[C@H](CCCCN)NC3=O)C2=O)C(C)C)cc1)C(C)C)C(C)C", "note": "(stereo not given in full) (I: H-CCKNTALTTC-OH / II: V[Cit][PABC][NMeV]VV[Dil][Dolaproine]-X1; linker I:1-II:N via Hexanoyl(6-succinimido-3yl); disulfide I:2-I:10)", "values": [
      {"measurement": "Activity", "setting": "MKN-45 [1]", "value": "Active"},
      {"measurement": "Activity", "setting": "[2]", "value": "Non-Toxic"},
      {"measurement": "Activity", "setting": "MKN-45 [3]", "value": "Active"},
      {"measurement": "Activity", "setting": "MKN-45 [4]", "value": "Tde"},
      {"measurement": "MTD at 504 h", "setting": "[5]", "value": 2, "unit": "mg/kg"},
      {"measurement": "Activity", "setting": "MKN-45 [6]", "value": 48.5, "unit": "%"},
      {"measurement": "Activity", "setting": "NUGC-4 [7]", "value": 30.9, "unit": "%"},
      {"measurement": "Activity", "setting": "MKN-45 [8]", "value": 292.1, "unit": "mm3"},
      {"measurement": "remaining at 8 h, 500 µM", "setting": "[9]", "value": 42.5, "unit": "%"},
      {"measurement": "Activity", "setting": "NUGC-4 [10]", "value": "Tde"},
      {"measurement": "Stability", "setting": "[11]", "value": "Stable"},
      {"measurement": "Activity", "setting": "[12]", "value": "Non-Toxic"},
      {"measurement": "Activity", "setting": "[13]", "value": "Non-Toxic"},
      {"measurement": "Activity", "setting": "MKN-45 [14]", "value": "Active"},
      {"measurement": "Activity", "setting": "MKN-45 [15]", "value": "Active"},
      {"measurement": "Activity", "setting": "[16]", "value": "Non-Toxic"},
      {"measurement": "Ratio IC50", "setting": "[17]", "value": 100},
      {"measurement": "Activity", "setting": "NUGC-4 [18]", "value": 87},
      {"measurement": "Drug uptake", "setting": "[19]", "value": "Active"},
      {"measurement": "pIC50", "setting": "MKN-45 [20]", "value": 8.28},
      {"measurement": "Activity", "setting": "[21]", "value": "Active"},
      {"measurement": "Activity", "setting": "[22]", "value": "Toxic"},
      {"measurement": "Activity", "setting": "MKN-45 [23]", "value": "Active"},
      {"measurement": "pIC50", "setting": "NUGC-4 [24]", "value": 8.41},
      {"measurement": "Ratio IC50", "setting": "[25]", "value": 100}
    ]}
  ]
}
